Assay results: patent US9833405B2, “Biodegradable microdepot delivery system for topical delivery” (Nano and Advanced Materials Institute Limited, priority 2014, dated 2017)
Where a SMILES comes first, the peptide text is derived from it. The star is where a group is joined. Palmitoyl = CCCCCCCCCCCCCCCC(=O)*

System: HaCaT cells
Experiment: Cell viability assay (MTT) for in vitro skin irritation of active ingredients
Assay type: cell-based, human
Conditions: for Cell viability(%): MTT
Procedure: HaCaT cells, a human keratinocyte cell line, are used as the in vitro model to test any irritation effect of the active ingredients used in the polymeric solution to form the microdepot delivery system of the present invention. The following is the procedures of an MTT assay for testing any skin irritation effect of the active ingredients used in the polymeric solution of the present invention: • a) 12 mM MTT stock solution is prepared by adding 1 mL of sterile PBS into one 5 mg vial of MTT (Component A) and mixed by sonication until the vial of MTT is dissolved in the PBS; • b) HaCaT cells at 5,000 cells per well are seed into a 96-well plate and incubated at 37° C. in 5% CO2 for 24 to 48 hours until the cells become adherent; • c) Culture medium in each well is removed and replaced with 100 μL of test compound (e.g., active ingredient used in the polymeric solution of the present invention); • d) 10 μL of the MTT stock solution prepared in step (a) is added to each well; a negative control containing 100 μL of culture medium and 10 μL of the MTT stock solution is also included for comparison; • e) Both test samples and negative control prepared in step (d) are incubated at 37° C. for 4 hours; • f) 25 μL of the solution is removed from each well after incubation in step (e) followed by adding 50 μL of DMSO to each well and mix thoroughly by pipette; • g) The mixture in step (f) is incubated at 37° C. for 10 minutes; • h) The mixture in each well after the incubation in step (g) is mixed again before measuring absorbance at 540 nm; • i) The mixture is subject to a spectrophotometer to measure the absorbance at 540 nm.
The cell viability of HaCaT cells with the treatment of the test compound is calculated based on the following formula:
[formula] where ^OD(1) is the absorbance of culture medium only; ^OD(2) is the absorbance of the culture medium with the cells; ^OD(3) is the absorbance of the culture medium with the test compound; and ^OD(4) is the absorbance of the culture medium with the cells and test compound.

NC(=O)c1cccnc1 [Niacinamide, reference compound]
Cell viability(%) (test compound 2%): 115% | Cell viability(%) (test compound 4%): 91.34% | Cell viability(%) (test compound 6%): 77.44% | Cell viability(%) (test compound 8%): 84.08% | Cell viability(%) (test compound 10%): 80.43% | cytotoxicity (viability higher than or equal to control) (at 2%): non-cytotoxic

GHK-Cu
Cell viability(%) (test compound 0.2%): 135.1% | Cell viability(%) (test compound 0.5%): 139.6% | Cell viability(%) (test compound 1%): 144.6% | Cell viability(%) (test compound 2%): 132.7% | Cell viability(%) (test compound 5%): 136.1% | cytotoxicity (viability higher than or equal to control) (concentrations ranging from 0.2% to 5%): non-cytotoxic

CCCCCCCCCCCCCCCC(=O)N[C@@H](CCCCN)C(=O)N[C@H](C(=O)N[C@H](C(=O)N[C@@H](CCCCN)C(=O)N[C@@H](CO)C(=O)O)[C@@H](C)O)[C@@H](C)O [Pal-KTTKS] (Palmitoyl-KTTKS-OH)
Cell viability(%) (test compound 3%): 119% | Cell viability(%) (test compound 4%): 135.1% | Cell viability(%) (test compound 5%): 122.6% | Cell viability(%) (test compound 8%): 141.9% | Cell viability(%) (test compound 10%): 127.8% | cytotoxicity (viability higher than or equal to control) (concentrations ranging from 3% to 10%): non-cytotoxic
